Reference: patent US20140357713A1, “ANTIMICROBIAL COMPOUNDS AND METHODS OF USE” (NexMed Holdings, Inc., priority 2012, published 2014)
Read-outs that look alike come from different tables or passages of the source.

Key:
[1] = test system: Escherichia coli; assay: Extended time kill study, Example 34 (0 to 24 h); format: cell-based
Experimental: (§1) Time kill studies. Strain suspensions were prepared as described above for the MIC test, and strain suspensions and compound solutions were mixed in the same volume. Samples were removed at specified times including 0 min, 30 sec, 1 min and 5 mins, were diluted in the test medium and streaked on agar. Colonies were counted after 24 to 48 hrs of incubation.
(§2) The time kill studies of Example 33 were extended for five compounds (Nex-59, Nex-60, Nex-61, Nex-62, and Nex-88) using the same methods at longer time periods and at higher multiples of MIC. Nex-88 is a code number for DDAIP.HCl from a different supplier.

[2] = test system: Candida albicans; assay: Extended time kill study, Example 34 (0 to 24 h); format: cell-based
Experimental: as §1, §2

[3] = test system: Aspergillus niger; assay: Extended time kill study, Example 34 (0 to 24 h); format: cell-based
Experimental: as §1, §2

[4] = test system: Staphulococcus aureus (ATCC 29213); assay: Minimum inhibitory concentration (MIC) assay, Example 33; format: cell-based, Staphylococcus aureus; details: Staphylococcus aureus
Method in brief: (§3)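 Following CLSI guidelines, each bacterial strain was taken from a twice-restreaked agar colony and suspended to 0.5 McFarland density. After a 1:100 dilution it was mixed 1:2 with 2-fold serially diluted compound in CAMHB. The MIC was read after incubation at 35 °C.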

[5] = test system: Pseudomonas aeruginosa (ATCC 27853); assay: as above; format: cell-based; details: Pseudomonas aeruginosa
Method in brief: as §3

[6] = test system: Escherichia coli (ATCC 25922); assay: as above; format: cell-based; details: Escherichia coli
Method in brief: as §3

MIC ([4]; ATCC29213, Table 19 summary, read-out: MIC): 1560 µg/mL
MIC ([4]; ATCC29213, n = 1, read-out: MIC S. aureus): 1560 µg/mL
MIC ([4]; ATCC29213, n = 2, read-out: MIC S. aureus): 1560 µg/mL
MIC ([5]; ATCC27853, Table 19 summary, read-out: MIC): 6250 µg/mL
MIC ([5]; ATCC27853, n = 1, read-out: MIC P. aeruginosa): 6250 µg/mL
MIC ([5]; ATCC27853, n = 2, read-out: MIC P. aeruginosa): 6250 µg/mL
MIC ([6]; ATCC25922, Table 19 summary of Example 33 and Example 35, read-out: MIC): 3130 µg/mL
MIC ([6]; ATCC25922, n = 1, read-out: MIC E. coli): 3130 µg/mL
MIC ([6]; ATCC25922, n = 2, read-out: MIC E. coli): 3130 µg/mL
melting point: 86 to 91 °C
Structure (SMILES): CCCCCCCCCCCCOC(=O)C(C)NC(C)C.Cl (stereo not shown) [Nex-60, Dodecyl 2-(isopropylamino)propanoate hydrochloride]
Viable counts, Escherichia coli time kill study ([1]; 1 × MIC, 1 h): <1 Log10 CFU/mL
Viable counts, Escherichia coli time kill study ([1]; 1 × MIC, 2 h): <1 Log10 CFU/mL
Viable counts, Escherichia coli time kill study ([1]; 1 × MIC, 4 h): <1 Log10 CFU/mL
Viable counts, Escherichia coli time kill study ([1]; 1 × MIC, 6 h): <1 Log10 CFU/mL
Viable counts, Escherichia coli time kill study ([1]; 1 × MIC, 24 h): <1 Log10 CFU/mL
Viable counts, Escherichia coli time kill study ([1]; 1×MIC, time 0): 5.02 Log10 CFU/mL
Viable counts, Escherichia coli time kill study ([1]; 2 × MIC, 1 h): <1 Log10 CFU/mL
Viable counts, Escherichia coli time kill study ([1]; 2 × MIC, 2 h): <1 Log10 CFU/mL
Viable counts, Escherichia coli time kill study ([1]; 2 × MIC, 4 h): <1 Log10 CFU/mL
Viable counts, Escherichia coli time kill study ([1]; 2 × MIC, 6 h): <1 Log10 CFU/mL
Viable counts, Escherichia coli time kill study ([1]; 2 × MIC, 24 h): <1 Log10 CFU/mL
Viable counts, Escherichia coli time kill study ([1]; 2 × MIC, time 0): 5.14 Log10 CFU/mL
Viable counts, Escherichia coli time kill study ([1]; 4 × MIC, 1 h): <1 Log10 CFU/mL
Viable counts, Escherichia coli time kill study ([1]; 4 × MIC, 2 h): <1 Log10 CFU/mL
Viable counts, Escherichia coli time kill study ([1]; 4 × MIC, 4 h): <1 Log10 CFU/mL
Viable counts, Escherichia coli time kill study ([1]; 4 × MIC, 6 h): <1 Log10 CFU/mL
Viable counts, Escherichia coli time kill study ([1]; 4 × MIC, 24 h): <1 Log10 CFU/mL
Viable counts, Escherichia coli time kill study ([1]; 4 × MIC, time 0): 5.07 Log10 CFU/mL
Viable counts in Log10 CFU/mL ([2]; 1 × MIC, 1 h): 5.51 Log10 CFU/mL
Viable counts in Log10 CFU/mL ([2]; 1 × MIC, 2 h): 5.50 Log10 CFU/mL
Viable counts in Log10 CFU/mL ([2]; 1 × MIC, 4 h): 5.18 Log10 CFU/mL
Viable counts in Log10 CFU/mL ([2]; 1 × MIC, 6 h): 5.09 Log10 CFU/mL
Viable counts in Log10 CFU/mL ([2]; 1 × MIC, 24 h): >6 Log10 CFU/mL
Viable counts in Log10 CFU/mL ([2]; 1 × MIC, 0 h): 5.56 Log10 CFU/mL
Viable counts in Log10 CFU/mL ([2]; 2 × MIC, 1 h): 3.30 Log10 CFU/mL
Viable counts in Log10 CFU/mL ([2]; 2 × MIC, 2 h): 3.00 Log10 CFU/mL
Viable counts in Log10 CFU/mL ([2]; 2 × MIC, 4 h): 3.00 Log10 CFU/mL
Viable counts in Log10 CFU/mL ([2]; 2 × MIC, 6 h): <2.70 Log10 CFU/mL
Viable counts in Log10 CFU/mL ([2]; 2 × MIC, 24 h): <1 Log10 CFU/mL
Viable counts in Log10 CFU/mL ([2]; 2 × MIC, 0 h): 5.51 Log10 CFU/mL
Viable counts in Log10 CFU/mL ([2]; 4 × MIC, 1 h): 3.78 Log10 CFU/mL
Viable counts in Log10 CFU/mL ([2]; 4 × MIC, 2 h): 3.30 Log10 CFU/mL
Viable counts in Log10 CFU/mL ([2]; 4 × MIC, 4 h): 3.00 Log10 CFU/mL
Viable counts in Log10 CFU/mL ([2]; 4 × MIC, 6 h): <2.70 Log10 CFU/mL
Viable counts in Log10 CFU/mL ([2]; 4 × MIC, 24 h): <1 Log10 CFU/mL
Viable counts in Log10 CFU/mL ([2]; 4 × MIC, 0 h): 5.62 Log10 CFU/mL
Viable counts in Log10 CFU/mL ([3]; 1 × MIC, 1 h): 4.60 Log10 CFU/mL
Viable counts in Log10 CFU/mL ([3]; 1 × MIC, 2 h): 4.78 Log10 CFU/mL
Viable counts in Log10 CFU/mL ([3]; 1 × MIC, 4 h): 4.60 Log10 CFU/mL
Viable counts in Log10 CFU/mL ([3]; 1 × MIC, 6 h): 4.30 Log10 CFU/mL
Viable counts in Log10 CFU/mL ([3]; 1 × MIC, 24 h): 3.81 Log10 CFU/mL
Viable counts in Log10 CFU/mL ([3]; 1 × MIC, 0 h): 5.52 Log10 CFU/mL
Viable counts in Log10 CFU/mL ([3]; 2 × MIC, 1 h): 4.30 Log10 CFU/mL
Viable counts in Log10 CFU/mL ([3]; 2 × MIC, 2 h): 4.78 Log10 CFU/mL
Viable counts in Log10 CFU/mL ([3]; 2 × MIC, 4 h): 3.85 Log10 CFU/mL
Viable counts in Log10 CFU/mL ([3]; 2 × MIC, 6 h): 3.78 Log10 CFU/mL
Viable counts in Log10 CFU/mL ([3]; 2 × MIC, 24 h): 4.30 Log10 CFU/mL
Viable counts in Log10 CFU/mL ([3]; 2 × MIC, 0 h): 5.47 Log10 CFU/mL
Viable counts in Log10 CFU/mL ([3]; 4 × MIC, 1 h): 4.00 Log10 CFU/mL
Viable counts in Log10 CFU/mL ([3]; 4 × MIC, 2 h): 4.48 Log10 CFU/mL
Viable counts in Log10 CFU/mL ([3]; 4 × MIC, 4 h): 3.60 Log10 CFU/mL
Viable counts in Log10 CFU/mL ([3]; 4 × MIC, 6 h): 3 Log10 CFU/mL
Viable counts in Log10 CFU/mL ([3]; 4 × MIC, 24 h): <2 Log10 CFU/mL
Viable counts in Log10 CFU/mL ([3]; 4 × MIC, 0 h): 5.60 Log10 CFU/mL
